Laboratory results as given in US8546410B2, “Heteroaryl-fused macrocyclic pyrimidine derivatives” (AbbVie Inc., priority 2008, dated 2013).

Assays:
histamine H4 receptor [1] = biological target: T1, histamine H4 receptor (Homo sapiens, UniProt Q9H3N8); test: In vitro histamine H4 potency in FLIPR (Ca2+ flux, Fluo-4, HEK-293 cells coexpressing Gαqi5); type: cell-based; settings: Kb values for antagonists and inverse agonists, EC50 values for partial agonists
T1 construct: expressed in transfected cells
Description: There are many methods available to show the effectiveness of compounds as histamine H4 receptor ligands. Histamine H4 receptors from mammalian species have been cloned. Methods to clone, express, and assess the potency and functional activity of such cloned genes are well known to those skilled in the art of molecular biology. Examples of methods of cloning and expressing histamine H4 receptors, and of assessing the potency and functional activity are described in Nguyen, et al. Molecular Pharmacology (2001) vol. 59 pp. 427-433; Zhu, et al. Molecular Pharmacology (2001) vol. 59 pp. 434-441; Coge, et al., Biochemical and Biophysical Research Communications (2001) vol. 284, pp. 301-309; Liu, et al. Molecular Pharmacology (2001) vol. 59 pp. 420-426; Liu, et al. Journal of Pharmacology and Experimental Therapeutics (2001) v. 299, pp. 121-130; and Thurmond, et al. Journal of Pharmacology and Experimental Therapeutics (2004) v. 309, pp. 404-413. In the present case, to determine the potency and effectiveness of representative compounds of this invention as histamine-H4 receptor ligands (H4 receptor ligands), the following tests were conducted according to previously described methods (see Esbenshade, et al., Biochemical Pharmacology (2004), vol. 68, pp. 933-945, and in Krueger, et al., Journal of Pharmacology and Experimental Therapeutics (2005) v. 314, pp. 271-281): histamine H4 receptors were cloned and stably expressed in HEK-293 (human embryonic kidney) cells coexpressing a Gαqi5. Before testing, cells are loaded with a Ca^+2 sensitive fluorescent dye, in this case Fluo-4. In the case of partial agonist or agonist ligands, addition of compound to the cells leads to the increase in intracellular Ca^+2 which is detected by FLIPR (Fluorescence Imaging Plate Reader; Molecular Devices, Sunnyvale, Calif.) technology. In a similar manner, compounds that are antagonists or inverse agonists, block the increase in fluorescence induced by the full histamine H4 agonist histamine, and partial agonists reduce the amount of fluorescence induced by the full histamine H4 agonist histamine. The fluorescence intensities measured before addition of the test compound are subtracted from the fluorescence intensities at later time points. Peak response values determined at each concentration of ligand are expressed as a percentage of the response obtained with the full agonist histamine. Concentration versus response data are analyzed to obtain compound potency as Kb values for antagonists and inverse agonists and as EC50 values for partial agonists.

histamine H4 receptor [2] = biological target: T1, histamine H4 receptor; test: 3H-histamine competition binding assay, membranes of transfected HEK-293 cells; settings: displacement of [3H]-histamine, 25° C., 1 hour; Ki by Cheng-Prusoff equation; read-out: Potency
Method: The potency of compounds of the invention in displacing ^3H-histamine in competition binding assays is assessed by methods described in Esbenshade, et al., Biochemical Pharmacology (2004), vol. 68, pp. 933-945. In this assay, membranes were prepared from HEK-293 cells transiently transfected with the pCINeo expression vector harboring the histamine H4 receptor by homogenization of the cells on ice in TE buffer (50 mM Tris-HCl buffer, pH 7.4, containing 5 mM EDTA), 1 mM benzamidine, 2 μg/ml aprotinin, 1 μg/ml leupeptin, and 1 μg/ml pepstatin. The homogenate was centrifuged at 40,000 g for 20 minutes at 4° C. This step was repeated, and the resulting pellet was resuspended in TE buffer. Aliquots were frozen at −70° C. until needed. On the day of assay, membranes were thawed and diluted with TE buffer. Competition radioligand binding assays were performed with increasing concentrations of test compound in the presence of [^3H]-histamine incubated at 25° C. for 1 hour in a total volume of 0.5 ml of 50 mM Tris, 5 mM EDTA, pH 7.4. All binding reactions were terminated by filtration under vacuum onto polyethylenimine (0.3%) presoaked Unifilters (PerkinElmer Life Sciences) or Whatman GF/B filters (Whatman, Clifton, N.J.) followed by three brief washes with 4 ml of ice-cold TE buffer. Bound radiolabel was determined by liquid scintillation counting. For all of the radioligand competition binding assays, IC50 values and Hill slopes were determined by Hill transformation of the data and Ki values were determined by the Cheng-Prusoff equation. The following table of representative histamine H4 receptor ligands is provided, along with potency values: […]

Row | SMILES | Potency (histamine H4 receptor [1]) | Ki (histamine H4 receptor [2])
1 | Nc1nc2c(c(N3CC4CCCNC4C3)n1)CCCc1sccc1-2 (stereo not shown) [Example 1, 4-octahydro-6H-pyrrolo[3,4-b]pyridin-6-yl-6,7-dihydro-5H-thieno[2′,3′:6,7]cyclohepta[1,2-d]pyrimidin-2-amine] | 17 nM | 6 nM
2 | Nc1nc2c(c(N3CC[C@@H](N)C3)n1)CCCc1sccc1-2 [Example 2, 4-[(3R)-3-aminopyrrolidin-1-yl]-6,7-dihydro-5H-thieno[2′,3′:6,7]cyclohepta[1,2-d]pyrimidin-2-amine] | 6.6 nM | 10 nM
3 | CN[C@@H]1CCN(c2nc(N)nc3c2CCCc2sccc2-3)C1 [Example 3, 4-[(3R)-3-(methylamino)pyrrolidin-1-yl]-6,7-dihydro-5H-thieno[2′,3′:6,7]cyclohepta[1,2-d]pyrimidin-2-amine] | 3.7 nM | 8.8 nM
4 | Nc1nc2c(c(N3CC4CCCNC4C3)n1)CCCc1occc1-2 (stereo not shown) [Example 4, 4-octahydro-6H-pyrrolo[3,4-b]pyridin-6-yl-6,7-dihydro-5H-furo[2′,3′:6,7]cyclohepta[1,2-d]pyrimidin-2-amine] | 14 nM | 12 nM
5 | Cc1cc2c(o1)CCCc1c-2nc(N)nc1N1CC2CCCNC2C1 (stereo not shown) [Example 5, 9-methyl-4-octahydro-6H-pyrrolo[3,4-b]pyridin-6-yl-6,7-dihydro-5H-furo[2′,3′:6,7]cyclohepta[1,2-d]pyrimidin-2-amine] | 34 nM | –
6 | Cc1cc2c(o1)CCCc1c-2nc(N)nc1N1CC[C@@H](N)C1 [Example 6, 4-[(3R)-3-aminopyrrolidin-1-yl]-9-methyl-6,7-dihydro-5H-furo[2′,3′:6,7]cyclohepta[1,2-d]pyrimidin-2-amine] | 252 nM | –
7 | Nc1nc2c(c(N3CC4CCCNC4C3)n1)CCCc1ccoc1-2 (stereo not shown) [Example 7, 4-octahydro-6H-pyrrolo[3,4-b]pyridin-6-yl-6,7-dihydro-5H-furo[3′,2′:6,7]cyclohepta[1,2-d]pyrimidin-2-amine] | 20 nM | 165 nM
8 | CN1CCN(c2nc(N)nc3c2CCCc2c-3cnn2C)CC1 [Example 8, 8-methyl-4-(4-methylpiperazin-1-yl)-5,6,7,8-tetrahydropyrazolo[3′,4′:6,7]cyclohepta[1,2-d]pyrimidin-2-amine] | 107 nM | –
9 | Cn1ncc2c1CCCc1c-2nc(N)nc1N1CC[C@@H](N)C1 [Example 9, 4-[(3R)-3-aminopyrrolidin-1-yl]-8-methyl-5,6,7,8-tetrahydropyrazolo[3′,4′:6,7]cyclohepta[1,2-d]pyrimidin-2-amine] | 105 nM | 426 nM
10 | CC(C)(C)n1ncc2c1CCCc1c-2nc(N)nc1N1CC2CCCNC2C1 (stereo not shown) [Example 10, 8-tert-butyl-4-octahydro-6H-pyrrolo[3,4-b]pyridin-6-yl-5,6,7,8-tetrahydropyrazolo[3′,4′:6,7]cyclohepta[1,2-d]pyrimidin-2-amine] | 187 nM | 44 nM
11 | Nc1nc2c(c(N3C[C@H]4CCCN[C@H]4C3)n1)CCCc1sccc1-2 [Example 18, 4-[(4aR,7aR)-octahydro-6H-pyrrolo [3,4-b]pyridin-6-yl]-6,7-dihydro-5H-thieno[2′,3′:6,7]cyclohepta[1,2-d]pyrimidin-2-amine] | 6 nM | 1.8 nM

Second part, the compound after the results:

Row | Potency (histamine H4 receptor [1]) | Ki (histamine H4 receptor [2]) | SMILES
12 | 46 nM | – | CN[C@@H]1CCN(c2nc(N)nc3c2CCCc2c-3cnn2-c2ccccc2)C1 [Example 11, 4-[(3R)-3-(methylamino)pyrrolidin-1-yl]-8-phenyl-5,6,7,8-tetrahydropyrazolo[3′,4′:6,7]cyclohepta[1,2-d]pyrimidin-2-amine]
13 | 35 nM | – | Nc1nc2c(c(N3CC4CCCNC4C3)n1)CCCc1sc(Br)cc1-2 (stereo not shown) [Example 12, 9-bromo-4-octahydro-6H-pyrrolo[3,4-b]pyridin-6-yl-6,7-dihydro-5H-thieno[2′,3′:6,7]cyclohepta[1,2-d]pyrimidin-2-amine]
14 | 700 nM | – | Nc1nc2c(c(N3CC4CCCNC4C3)n1)CCCc1sc(-c3ccccc3)cc1-2 (stereo not shown) [Example 13, 4-octahydro-6H-pyrrolo[3,4-b]pyridin-6-yl-9-phenyl-6,7-dihydro-5H-thieno[2′,3′:6,7]cyclohepta[1,2-d]pyrimidin-2-amine]
15 | 37 nM | – | CN1CCN(c2nc(N)nc3c2CCCc2cccnc2-3)CC1 [Example 14, 4-(4-methylpiperazin-1-yl)-6,7-dihydro-5H-pyrido[3′,2′:6,7]cyclohepta[1,2-d]pyrimidin-2-amine]
16 | 35 nM | – | Nc1nc2c(c(N3CC[C@@H](N)C3)n1)CCCc1cccnc1-2 [Example 15, 4-[(3R)-3-aminopyrrolidin-1-yl]-6,7-dihydro-5H-pyrido[3′,2′:6,7]cyclohepta[1,2-d]pyrimidin-2-amine]
17 | 2350 nM | – | Cc1noc2c1-c1nc(N)nc(N3CCN(C)CC3)c1CCC2 [Example 16, 10-methyl-4-(4-methylpiperazin-1-yl)-6,7-dihydro-5H-isoxazolo[5′,4′:6,7]cyclohepta[1,2-d]pyrimidin-2-amine]
18 | 1860 nM | – | Cc1noc2c1-c1nc(N)nc(N3CC[C@@H](N)C3)c1CCC2 [Example 17, 4-[(3R)-3-aminopyrrolidin-1-yl]-10-methyl-6,7-dihydro-5H-isoxazolo[5′,4′:6,7]cyclohepta[1,2-d]pyrimidin-2-amine]
19 | – | 1300 nM | CN1CCN(c2nc(N)nc3c2CCc2nn(-c4ccccc4)nc2-3)CC1 [Example 20, 6-(4-methylpiperazin-1-yl)-2-phenyl-4,5-dihydro-2H-[1,2,3]triazolo[4,5-h]quinazolin-8-amine]
20 | – | 80 nM | CN1CCN(c2nc(N)nc3c2CCc2sccc2-3)CC1 [Example 21, 4-(4-methylpiperazin-1-yl)-5,6-dihydrothieno[2,3-h]quinazolin-2-amine]
